According to patent publication US20230139171A1 (SITA Information Networking Computing UK Limited, priority 2019, published 2023):

Columns and labels:
Assay type in all cases: cell-based
[1] = molecular target: T1, human TLR7 (Homo sapiens, UniProt Q9NYK1); experiment: TLR7 inhibition reporter assay (HEK-Blue cells, SEAP reporter, gardiquimod stimulation); conditions: HEK-Blue cells overexpressing human TLR7, SEAP reporter, gardiquimod 7.5 μM; read-out: TLR7 IC50
T1 construct: host or cells: HEK-Blue cells
T1 sequence (Q9NYK1 27-1049): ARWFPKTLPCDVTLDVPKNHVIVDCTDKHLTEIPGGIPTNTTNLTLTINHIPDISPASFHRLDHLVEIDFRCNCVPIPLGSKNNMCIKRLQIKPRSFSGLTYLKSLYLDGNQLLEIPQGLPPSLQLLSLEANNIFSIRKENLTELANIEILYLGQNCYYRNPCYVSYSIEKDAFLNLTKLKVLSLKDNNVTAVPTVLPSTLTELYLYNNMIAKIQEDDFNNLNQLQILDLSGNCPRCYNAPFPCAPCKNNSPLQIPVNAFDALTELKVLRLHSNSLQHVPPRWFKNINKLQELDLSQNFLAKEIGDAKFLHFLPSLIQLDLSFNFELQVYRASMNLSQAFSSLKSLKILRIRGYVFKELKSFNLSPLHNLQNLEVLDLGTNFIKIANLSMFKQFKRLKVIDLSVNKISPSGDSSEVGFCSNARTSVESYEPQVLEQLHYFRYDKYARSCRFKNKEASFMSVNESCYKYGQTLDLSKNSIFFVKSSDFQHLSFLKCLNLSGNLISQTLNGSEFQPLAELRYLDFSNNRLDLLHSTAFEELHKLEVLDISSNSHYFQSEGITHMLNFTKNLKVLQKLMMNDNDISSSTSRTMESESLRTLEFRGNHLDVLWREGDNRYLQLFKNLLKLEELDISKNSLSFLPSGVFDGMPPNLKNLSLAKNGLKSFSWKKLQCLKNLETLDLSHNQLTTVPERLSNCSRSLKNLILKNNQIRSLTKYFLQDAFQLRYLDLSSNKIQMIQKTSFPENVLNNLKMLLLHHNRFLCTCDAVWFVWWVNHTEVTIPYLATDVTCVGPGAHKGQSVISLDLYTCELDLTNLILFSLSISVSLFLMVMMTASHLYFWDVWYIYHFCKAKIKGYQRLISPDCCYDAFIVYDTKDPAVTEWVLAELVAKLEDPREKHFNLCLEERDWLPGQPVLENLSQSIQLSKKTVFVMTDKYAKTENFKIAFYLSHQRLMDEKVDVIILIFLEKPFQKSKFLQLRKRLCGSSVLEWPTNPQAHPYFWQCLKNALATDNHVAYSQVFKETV
Outline: (§1)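 Compound treatment: 30 min, RT, 0.05 nM–50 μM final. Agonist: TLR7 gardiquimod 7.5 μM; TLR8 R848 15.9 μM; TLR9 ODN2006 5 nM. Incubation 22 h, 37 °C, 5% CO2. Readout SEAP, HEK-Blue Detection.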

[2] = molecular target: T2, human TLR9 (Homo sapiens, UniProt Q9NR96); experiment: TLR9 inhibition reporter assay (HEK-Blue cells, SEAP reporter, ODN2006 stimulation); conditions: HEK-Blue cells overexpressing human TLR9, SEAP reporter, ODN2006 5 nM
T2 construct: host or cells: HEK-Blue cells
T2 sequence (Q9NR96 26-1032): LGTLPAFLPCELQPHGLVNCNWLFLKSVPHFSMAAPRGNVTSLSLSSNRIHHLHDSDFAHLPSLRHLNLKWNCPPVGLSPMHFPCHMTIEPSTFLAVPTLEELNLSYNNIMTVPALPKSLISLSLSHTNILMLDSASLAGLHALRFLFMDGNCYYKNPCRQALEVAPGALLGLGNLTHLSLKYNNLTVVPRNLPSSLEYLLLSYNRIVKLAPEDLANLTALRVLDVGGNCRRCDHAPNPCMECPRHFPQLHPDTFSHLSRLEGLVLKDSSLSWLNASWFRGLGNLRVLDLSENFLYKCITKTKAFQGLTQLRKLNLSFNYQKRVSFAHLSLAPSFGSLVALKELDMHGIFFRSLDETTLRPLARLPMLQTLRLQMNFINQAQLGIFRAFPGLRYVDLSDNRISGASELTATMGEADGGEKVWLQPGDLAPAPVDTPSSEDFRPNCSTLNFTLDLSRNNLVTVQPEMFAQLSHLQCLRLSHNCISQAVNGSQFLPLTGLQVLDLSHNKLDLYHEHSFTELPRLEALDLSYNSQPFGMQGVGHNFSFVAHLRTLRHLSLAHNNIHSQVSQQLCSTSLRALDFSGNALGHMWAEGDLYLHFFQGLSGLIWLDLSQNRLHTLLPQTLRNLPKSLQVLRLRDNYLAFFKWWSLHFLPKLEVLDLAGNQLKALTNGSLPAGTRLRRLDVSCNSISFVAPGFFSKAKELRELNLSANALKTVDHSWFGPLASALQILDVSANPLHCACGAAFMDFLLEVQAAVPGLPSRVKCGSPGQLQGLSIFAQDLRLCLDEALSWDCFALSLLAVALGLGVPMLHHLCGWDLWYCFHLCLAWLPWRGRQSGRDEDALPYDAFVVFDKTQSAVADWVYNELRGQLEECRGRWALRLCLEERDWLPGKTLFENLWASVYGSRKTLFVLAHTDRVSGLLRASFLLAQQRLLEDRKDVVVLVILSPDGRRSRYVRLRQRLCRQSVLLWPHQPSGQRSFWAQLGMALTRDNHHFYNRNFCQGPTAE
Outline: as §1

[3] = molecular target: T3, human TLR8 (Homo sapiens, UniProt Q9NR97); experiment: TLR8 inhibition reporter assay (HEK-Blue cells, SEAP reporter, R848 stimulation); conditions: HEK-Blue cells overexpressing human TLR8, SEAP reporter, R848 15.9 μM; read-out: TLR8 IC50
T3 construct: host or cells: HEK-Blue cells
T3 sequence (Q9NR97 27-1041): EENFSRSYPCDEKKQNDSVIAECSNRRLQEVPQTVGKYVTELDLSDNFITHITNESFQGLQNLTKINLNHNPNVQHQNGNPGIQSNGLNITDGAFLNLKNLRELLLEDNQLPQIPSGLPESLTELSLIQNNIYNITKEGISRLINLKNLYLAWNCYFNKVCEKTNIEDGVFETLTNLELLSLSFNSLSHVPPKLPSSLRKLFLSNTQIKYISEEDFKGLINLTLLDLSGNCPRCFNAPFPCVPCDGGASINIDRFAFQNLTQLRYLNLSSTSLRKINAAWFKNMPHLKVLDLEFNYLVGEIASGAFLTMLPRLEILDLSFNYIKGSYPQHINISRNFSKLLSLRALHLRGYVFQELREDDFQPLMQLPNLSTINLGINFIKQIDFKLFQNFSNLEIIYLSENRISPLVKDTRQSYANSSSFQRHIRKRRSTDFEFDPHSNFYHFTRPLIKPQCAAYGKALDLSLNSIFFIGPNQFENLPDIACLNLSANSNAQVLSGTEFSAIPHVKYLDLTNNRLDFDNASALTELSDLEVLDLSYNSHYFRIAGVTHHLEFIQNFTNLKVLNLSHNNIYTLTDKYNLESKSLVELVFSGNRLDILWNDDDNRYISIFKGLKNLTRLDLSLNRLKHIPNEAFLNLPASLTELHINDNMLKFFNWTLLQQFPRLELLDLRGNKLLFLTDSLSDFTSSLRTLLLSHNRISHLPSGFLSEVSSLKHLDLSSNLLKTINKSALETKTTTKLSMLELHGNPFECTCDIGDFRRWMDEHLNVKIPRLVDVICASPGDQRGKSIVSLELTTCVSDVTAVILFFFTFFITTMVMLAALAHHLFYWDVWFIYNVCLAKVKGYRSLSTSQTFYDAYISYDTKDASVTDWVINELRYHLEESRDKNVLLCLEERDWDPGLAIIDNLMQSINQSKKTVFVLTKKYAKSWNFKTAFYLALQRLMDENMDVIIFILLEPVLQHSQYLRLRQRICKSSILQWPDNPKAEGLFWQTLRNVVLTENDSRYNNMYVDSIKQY
Outline: as §1

IC50 [1] [nM] | IC50 [2] [µM] | IC50 [3] [nM] | Compound
6.58 | > 50 | 33.9 | COc1cc(-c2[nH]c3sc(C4CCC(NC56CC(C5)C6)CC4)nc3c2C(C)C)cn2ncnc12 (single isomer, unassigned) [Example 168, N-(4-(6-isopropyl-5-(8-methoxy-[1,2,4]triazolo[1,5-a]pyridin-6-yl)-4H-pyrrolo[3,2-d]thiazol-2-yl)cyclohexyl)bicyclo[1.1.1]pentan-1-amine]
4.17 | 9.81 | 17 | COc1cc(-c2[nH]c3sc(C4CCC(NC56CC(C5)C6)CC4)nc3c2C(C)C)cn2ncnc12 (single isomer, unassigned) [Example 169, N-(4-(6-isopropyl-5-(8-methoxy-[1,2,4]triazolo[1,5-a]pyridin-6-yl)-4H-pyrrolo[3,2-d]thiazol-2-yl)cyclohexyl)bicyclo[1.1.1]pentan-1-amine]
2.38 | 1.76 | 4.65 | CNCCNC1CCC(c2nc3c(C(C)C)c(-c4cc(OC)c5ncnn5c4)[nH]c3s2)CC1 (single isomer, unassigned) [Example 170, N1-(4-(6-isopropyl-5-(8-methoxy-[1,2,4]triazolo[1,5-a]pyridin-6-yl)-4H-pyrrolo[3,2-d]thiazol-2-yl)cyclohexyl)-N2-methylethane-1,2-diamine]
0.78 | 0.879 | 2.21 | CNCCNC1CCC(c2nc3c(C(C)C)c(-c4cc(OC)c5ncnn5c4)[nH]c3s2)CC1 (single isomer, unassigned) [Example 171, N1-(4-(6-isopropyl-5-(8-methoxy-[1,2,4]triazolo[1,5-a]pyridin-6-yl)-4H-pyrrolo[3,2-d]thiazol-2-yl)cyclohexyl)-N2-methylethane-1,2-diamine]
2.84 | 14.8 | 1.22 | CC(C)c1c(-c2cn(C)c3ncccc23)[nH]c2sc(C3CCC(NCC4(C)COC4)CC3)nc12 (single isomer, unassigned) [Example 172, 4-(6-isopropyl-5-(1-methyl-1H-pyrrolo[2,3-b]pyridin-3-yl)-4H-pyrrolo[3,2-d]thiazol-2-yl)-N-((3-methyloxetan-3-yl)methyl)cyclohexan-1-amine]
8.56 | 7.79 | 7.58 | CC(C)c1c(-c2cn(C)c3ncccc23)[nH]c2sc(C3CCC(NCC4(C)COC4)CC3)nc12 (single isomer, unassigned) [Example 173, 4-(6-isopropyl-5-(1-methyl-1H-pyrrolo[2,3-b]pyridin-3-yl)-4H-pyrrolo[3,2-d]thiazol-2-yl)-N-((3-methyloxetan-3-yl)methyl)cyclohexan-1-amine]
1.84 | 16 | 3.13 | CCN(C)C1CCC(c2nc3c(C(C)C)c(-c4cn(C)c5ncccc45)[nH]c3s2)CC1 (single isomer, unassigned) [Example 174, N-ethyl-4-(6-isopropyl-5-(1-methyl-1H-pyrrolo[2,3-b]pyridin-3-yl)-4H-pyrrolo[3,2-d]thiazol-2-yl)-N-methylcyclohexan-1-amine]
3.76 | 6.25 | 6.23 | CCN(C)C1CCC(c2nc3c(C(C)C)c(-c4cn(C)c5ncccc45)[nH]c3s2)CC1 (single isomer, unassigned) [Example 175, N-ethyl-4-(6-isopropyl-5-(1-methyl-1H-pyrrolo[2,3-b]pyridin-3-yl)-4H-pyrrolo[3,2-d]thiazol-2-yl)-N-methylcyclohexan-1-amine]
23.3 | 9.58 | 23.7 | CC(C)c1c(-c2cn(C)c3ncccc23)[nH]c2sc(C3CCC(NC45CC(C4)C5)CC3)nc12 (single isomer, unassigned) [Example 176, N-(4-(6-isopropyl-5-(1-methyl-1H-pyrrolo[2,3-b]pyridin-3-yl)-4H-pyrrolo[3,2-d]thiazol-2-yl)cyclohexyl)bicyclo[1.1.1]pentan-1-amine]
3.23 | 9.79 | 5.63 | CC(C)c1c(-c2cn(C)c3ncccc23)[nH]c2sc(C3CCC(NC45CC(C4)C5)CC3)nc12 (single isomer, unassigned) [Example 177, N-(4-(6-isopropyl-5-(1-methyl-1H-pyrrolo[2,3-b]pyridin-3-yl)-4H-pyrrolo[3,2-d]thiazol-2-yl)cyclohexyl)bicyclo[1.1.1]pentan-1-amine]
1.69 | 6.71 | 2.44 | CC(C)c1c(-c2cn(C)c3ncccc23)[nH]c2sc(C3CCC(NC4COC4)CC3)nc12 (single isomer, unassigned) [Example 178, N-(4-(6-isopropyl-5-(1-methyl-1H-pyrrolo[2,3-b]pyridin-3-yl)-4H-pyrrolo[3,2-d]thiazol-2-yl)cyclohexyl)oxetan-3-amine]
